Source: ChEMBL document CHEMBL1149933, “Synthesis and structure-activity relationship of C-3 benzoyloxymethyl cephalosporins exhibiting anti-MRSA activities” (Bioorg Med Chem Lett, 1997)
≈ marks a conversion by molar mass, not a printed value.

Columns and labels:
Staphylococcus aureus [1] = test: Inhibitory effect against methicillin resistant Staphylococcus aureus (A 27218), expressed as minimum inhibitory concentration; format: functional
Staphylococcus aureus [2] = test: Inhibitory effect against methicillin resistant Staphylococcus aureus (A 27223), expressed as minimum inhibitory concentration; format: functional
Staphylococcus aureus [3] = test: Inhibitory effect against methicillin resistant Staphylococcus aureus (A 27621), expressed as minimum inhibitory concentration; format: functional
Staphylococcus aureus [4] = test: Inhibitory effect against methicillin susceptible Staphylococcus aureus (A 15090), expressed as minimum inhibitory concentration; format: functional
Staphylococcus aureus [5] = test: Inhibitory effect against methicillin resistant Staphylococcus aureus (A 27217), expressed as minimum inhibitory concentration; format: functional
[6] = In vitro half life in human plasma was determined; format: ADME, cell-free
Mus musculus = test: In vivo protective dose against MRSA (strain A 27223); format: functional; details: read-out: PD50
Staphylococcus aureus [7] = test: Minimum inhibitory concentration against MRSA (strain A 27223)

CC(=O)Oc1ccc(C(=O)OCC2=C(C(=O)O)N3C(=O)[C@@H](NC(=O)CSc4cc(Cl)ccc4Cl)C3SC2)cc1 (stereo not given in full)
MIC (Staphylococcus aureus [1]): 0.06 µg/mL (≈ 0.0981 µM) | MIC (Staphylococcus aureus [2]): 0.125 µg/mL (≈ 0.204 µM) | MIC (Staphylococcus aureus [3]): 0.125 µg/mL (≈ 0.204 µM) | MIC (Staphylococcus aureus [4]): 0.007 µg/mL (≈ 0.0114 µM) | MIC (Staphylococcus aureus [5]): 0.06 µg/mL (≈ 0.0981 µM)

Cc1ccc(C(=O)OCC2=C(C(=O)O)N3C(=O)[C@@H](NC(=O)CSc4cc(Cl)ccc4Cl)C3SC2)cc1 (stereo not given in full)
MIC (Staphylococcus aureus [1]): 0.06 µg/mL (≈ 0.106 µM) | MIC (Staphylococcus aureus [2]): 0.5 µg/mL (≈ 0.881 µM) | MIC (Staphylococcus aureus [3]): 0.25 µg/mL (≈ 0.441 µM) | MIC (Staphylococcus aureus [4]): 0.125 µg/mL (≈ 0.22 µM) | MIC (Staphylococcus aureus [5]): 0.5 µg/mL (≈ 0.881 µM)

O=C(CSc1cc(Cl)ccc1Cl)N[C@@H]1C(=O)N2C(C(=O)O)=C(COC(=O)c3ccc(O)cc3)CSC12 (stereo not given in full)
MIC (Staphylococcus aureus [1]): 0.06 µg/mL (≈ 0.105 µM) | MIC (Staphylococcus aureus [2]): 0.25 µg/mL (≈ 0.439 µM) | MIC (Staphylococcus aureus [3]): 0.5 µg/mL (≈ 0.878 µM) | MIC (Staphylococcus aureus [4]): 0.007 µg/mL (≈ 0.0123 µM) | MIC (Staphylococcus aureus [5]): 0.06 µg/mL (≈ 0.105 µM)

N#Cc1ccc(C(=O)OCC2=C(C(=O)O)N3C(=O)[C@@H](NC(=O)CSc4cc(Cl)ccc4Cl)C3SC2)cc1 (stereo not given in full)
MIC (Staphylococcus aureus [1]): 0.125 µg/mL (≈ 0.216 µM) | MIC (Staphylococcus aureus [2]): 1 µg/mL (≈ 1.73 µM) | MIC (Staphylococcus aureus [3]): 0.5 µg/mL (≈ 0.864 µM) | MIC (Staphylococcus aureus [4]): 0.03 µg/mL (≈ 0.0519 µM) | MIC (Staphylococcus aureus [5]): 0.125 µg/mL (≈ 0.216 µM)

CC(=O)Nc1ccc(C(=O)OCC2=C(C(=O)O)N3C(=O)[C@@H](NC(=O)CSc4cc(Cl)ccc4Cl)C3SC2)cc1 (stereo not given in full)
MIC (Staphylococcus aureus [1]): 0.5 µg/mL (≈ 0.819 µM) | MIC (Staphylococcus aureus [2]): 1 µg/mL (≈ 1.64 µM) | MIC (Staphylococcus aureus [3]): 1 µg/mL (≈ 1.64 µM) | MIC (Staphylococcus aureus [4]): 0.06 µg/mL (≈ 0.0983 µM) | MIC (Staphylococcus aureus [5]): 0.5 µg/mL (≈ 0.819 µM)

O=C(CSc1cc(Cl)ccc1Cl)N[C@@H]1C(=O)N2C(C(=O)O)=C(COC(=O)c3cccnc3)CSC12 (stereo not given in full)
MIC (Staphylococcus aureus [1]): 2 µg/mL (≈ 3.61 µM) | MIC (Staphylococcus aureus [2]): 4 µg/mL (≈ 7.21 µM) | MIC (Staphylococcus aureus [3]): 4 µg/mL (≈ 7.21 µM) | MIC (Staphylococcus aureus [4]): 0.125 µg/mL (≈ 0.225 µM) | MIC (Staphylococcus aureus [5]): 2 µg/mL (≈ 3.61 µM)

O=C(CSc1cc(Cl)ccc1Cl)N[C@@H]1C(=O)N2C(C(=O)O)=C(COC(=O)c3ccc([N+](=O)[O-])cc3)CSC12 (stereo not given in full)
MIC (Staphylococcus aureus [1]): 0.25 µg/mL (≈ 0.418 µM) | MIC (Staphylococcus aureus [2]): 2 µg/mL (≈ 3.34 µM) | MIC (Staphylococcus aureus [3]): 2 µg/mL (≈ 3.34 µM) | MIC (Staphylococcus aureus [4]): 0.06 µg/mL (≈ 0.1 µM) | MIC (Staphylococcus aureus [5]): 0.25 µg/mL (≈ 0.418 µM)

O=C(CSc1cc(Cl)ccc1Cl)N[C@@H]1C(=O)N2C(C(=O)O)=C(COC(=O)c3ccncc3)CSC12 (stereo not given in full)
MIC (Staphylococcus aureus [1]): 0.5 µg/mL (≈ 0.902 µM) | MIC (Staphylococcus aureus [2]): 8 µg/mL (≈ 14.4 µM) | MIC (Staphylococcus aureus [3]): 4 µg/mL (≈ 7.21 µM) | MIC (Staphylococcus aureus [4]): 0.06 µg/mL (≈ 0.108 µM) | MIC (Staphylococcus aureus [5]): 1 µg/mL (≈ 1.8 µM)

O=C(CSc1cc(Cl)ccc1Cl)N[C@@H]1C(=O)N2C(C(=O)O)=C(COC(=O)c3ccccc3)CSC12 (stereo not given in full)
MIC (Staphylococcus aureus [1]): 0.5 µg/mL (≈ 0.903 µM) | MIC (Staphylococcus aureus [2]): 1 µg/mL (≈ 1.81 µM) | MIC (Staphylococcus aureus [3]): 1 µg/mL (≈ 1.81 µM) | MIC (Staphylococcus aureus [4]): 0.06 µg/mL (≈ 0.108 µM) | MIC (Staphylococcus aureus [5]): 1 µg/mL (≈ 1.81 µM) | half-life [6]: > 600 min

CC(=O)OCC1=C(C(=O)O)N2C(=O)[C@@H](NC(=O)CSc3cc(Cl)ccc3Cl)C2SC1 (stereo not given in full)
ED50 (Mus musculus): 2 mg/kg | half-life [6]: ~250 min | MIC (Staphylococcus aureus [7]): 2 µg/mL (≈ 4.07 µM)

CN(C)c1ccc(C(=O)OCC2=C(C(=O)O)N3C(=O)[C@@H](NC(=O)CSc4cc(Cl)ccc4Cl)C3SC2)cc1 (stereo not given in full)
MIC (Staphylococcus aureus [1]): 0.125 µg/mL (≈ 0.21 µM) | MIC (Staphylococcus aureus [2]): 0.25 µg/mL (≈ 0.419 µM) | MIC (Staphylococcus aureus [3]): 0.25 µg/mL (≈ 0.419 µM) | MIC (Staphylococcus aureus [4]): 0.06 µg/mL (≈ 0.101 µM) | MIC (Staphylococcus aureus [5]): 0.125 µg/mL (≈ 0.21 µM) | half-life [6]: > 600 min

C[n+]1ccc(C(=O)OCC2=C(C(=O)[O-])N3C(=O)[C@@H](NC(=O)CSc4cc(Cl)ccc4Cl)C3SC2)cc1 (stereo not given in full)
MIC (Staphylococcus aureus [1]): 2 µg/mL (≈ 3.52 µM) | MIC (Staphylococcus aureus [2]): 32 µg/mL (≈ 56.3 µM) | MIC (Staphylococcus aureus [3]): 32 µg/mL (≈ 56.3 µM) | MIC (Staphylococcus aureus [4]): 0.125 µg/mL (≈ 0.22 µM) | MIC (Staphylococcus aureus [5]): 8 µg/mL (≈ 14.1 µM)

COc1ccc(C(=O)OCC2=C(C(=O)O)N3C(=O)[C@@H](NC(=O)CSc4cc(Cl)ccc4Cl)C3SC2)cc1 (stereo not given in full)
MIC (Staphylococcus aureus [1]): 0.125 µg/mL (≈ 0.214 µM) | MIC (Staphylococcus aureus [2]): 0.5 µg/mL (≈ 0.857 µM) | MIC (Staphylococcus aureus [3]): 0.5 µg/mL (≈ 0.857 µM) | MIC (Staphylococcus aureus [4]): 0.06 µg/mL (≈ 0.103 µM) | MIC (Staphylococcus aureus [5]): 0.06 µg/mL (≈ 0.103 µM)

CN[C@H](CC(C)C)C(=O)N[C@H]1C(=O)N[C@@H](CC(N)=O)C(=O)N[C@H]2C(=O)N[C@H]3C(=O)N[C@H](C(=O)N[C@H](C(=O)O)c4cc(O)cc(O)c4-c4cc3ccc4O)[C@H](O)c3ccc(c(Cl)c3)Oc3cc2cc(c3O[C@@H]2O[C@H](CO)[C@@H](O)[C@H](O)[C@H]2O[C@H]2C[C@](C)(N)[C@H](O)[C@H](C)O2)Oc2ccc(cc2Cl)[C@H]1O [VANCOMYCIN]
MIC (Staphylococcus aureus [1]): 0.25 µg/mL (≈ 0.173 µM) | MIC (Staphylococcus aureus [2]): 0.25 µg/mL (≈ 0.173 µM) | MIC (Staphylococcus aureus [3]): 0.25 µg/mL (≈ 0.173 µM) | MIC (Staphylococcus aureus [4]): 0.25 µg/mL (≈ 0.173 µM) | MIC (Staphylococcus aureus [5]): 0.25 µg/mL (≈ 0.173 µM)

C[n+]1cccc(C(=O)OCC2=C(C(=O)[O-])N3C(=O)[C@@H](NC(=O)CSc4cc(Cl)ccc4Cl)C3SC2)c1 (stereo not given in full)
MIC (Staphylococcus aureus [1]): 32 µg/mL (≈ 56.3 µM) | MIC (Staphylococcus aureus [2]): 64 µg/mL (≈ 113 µM) | MIC (Staphylococcus aureus [3]): 64 µg/mL (≈ 113 µM) | MIC (Staphylococcus aureus [4]): 0.5 µg/mL (≈ 0.88 µM) | MIC (Staphylococcus aureus [5]): 64 µg/mL (≈ 113 µM)
